Experimental data from patent US20060252723A1, “Combined therapy utilizing reduction of DNA methyltransferase expression and/or activity and interferon” (Methylgene, Inc. The Cleveland Clinic Foundation, priority 2005, published 2006).

Assays:
RASSF1A = assay: RT-PCR for RASSF1A; type: cell-based, human; conditions: ACHN cells; data not shown
ACHN cells [1] = assay: TUNEL flow cytometric analysis of apoptosis; type: cell-based, human; conditions: for resistance to IFN-induced apoptosis after pretreatment: FIG. 2A; for apoptosis, agent alone: FIG. 2B
Method: After the indicated time of DNMT1 inhibition cells were plated at 5000 cells/cm^2 for TUNEL assay with IFNs added 16 hr after plating. Four to 5 days after IFN administration cells were harvested and processed according to the manufacturer's instructions for TUNEL flow cytometric analysis (BD Pharmingen, San Diego, Calif.).

DNMT1 protein = target: T1, DNMT1 protein (Homo sapiens, UniProt P26358); assay: DNMT1 protein immunoblot after DNMT1 AS or 5-AZA-dC treatment; type: cell-based; conditions: ACHN cells; 40 nM DNMT1 AS daily over 9 days or 200 nM 5-AZA-dC daily over 4 days; protein 4, 24, 48 hrs after last treatment
T1 construct: endogenous in cells; host or cells: ACHN renal cell carcinoma cells
T1 sequence (P26358 whole entry): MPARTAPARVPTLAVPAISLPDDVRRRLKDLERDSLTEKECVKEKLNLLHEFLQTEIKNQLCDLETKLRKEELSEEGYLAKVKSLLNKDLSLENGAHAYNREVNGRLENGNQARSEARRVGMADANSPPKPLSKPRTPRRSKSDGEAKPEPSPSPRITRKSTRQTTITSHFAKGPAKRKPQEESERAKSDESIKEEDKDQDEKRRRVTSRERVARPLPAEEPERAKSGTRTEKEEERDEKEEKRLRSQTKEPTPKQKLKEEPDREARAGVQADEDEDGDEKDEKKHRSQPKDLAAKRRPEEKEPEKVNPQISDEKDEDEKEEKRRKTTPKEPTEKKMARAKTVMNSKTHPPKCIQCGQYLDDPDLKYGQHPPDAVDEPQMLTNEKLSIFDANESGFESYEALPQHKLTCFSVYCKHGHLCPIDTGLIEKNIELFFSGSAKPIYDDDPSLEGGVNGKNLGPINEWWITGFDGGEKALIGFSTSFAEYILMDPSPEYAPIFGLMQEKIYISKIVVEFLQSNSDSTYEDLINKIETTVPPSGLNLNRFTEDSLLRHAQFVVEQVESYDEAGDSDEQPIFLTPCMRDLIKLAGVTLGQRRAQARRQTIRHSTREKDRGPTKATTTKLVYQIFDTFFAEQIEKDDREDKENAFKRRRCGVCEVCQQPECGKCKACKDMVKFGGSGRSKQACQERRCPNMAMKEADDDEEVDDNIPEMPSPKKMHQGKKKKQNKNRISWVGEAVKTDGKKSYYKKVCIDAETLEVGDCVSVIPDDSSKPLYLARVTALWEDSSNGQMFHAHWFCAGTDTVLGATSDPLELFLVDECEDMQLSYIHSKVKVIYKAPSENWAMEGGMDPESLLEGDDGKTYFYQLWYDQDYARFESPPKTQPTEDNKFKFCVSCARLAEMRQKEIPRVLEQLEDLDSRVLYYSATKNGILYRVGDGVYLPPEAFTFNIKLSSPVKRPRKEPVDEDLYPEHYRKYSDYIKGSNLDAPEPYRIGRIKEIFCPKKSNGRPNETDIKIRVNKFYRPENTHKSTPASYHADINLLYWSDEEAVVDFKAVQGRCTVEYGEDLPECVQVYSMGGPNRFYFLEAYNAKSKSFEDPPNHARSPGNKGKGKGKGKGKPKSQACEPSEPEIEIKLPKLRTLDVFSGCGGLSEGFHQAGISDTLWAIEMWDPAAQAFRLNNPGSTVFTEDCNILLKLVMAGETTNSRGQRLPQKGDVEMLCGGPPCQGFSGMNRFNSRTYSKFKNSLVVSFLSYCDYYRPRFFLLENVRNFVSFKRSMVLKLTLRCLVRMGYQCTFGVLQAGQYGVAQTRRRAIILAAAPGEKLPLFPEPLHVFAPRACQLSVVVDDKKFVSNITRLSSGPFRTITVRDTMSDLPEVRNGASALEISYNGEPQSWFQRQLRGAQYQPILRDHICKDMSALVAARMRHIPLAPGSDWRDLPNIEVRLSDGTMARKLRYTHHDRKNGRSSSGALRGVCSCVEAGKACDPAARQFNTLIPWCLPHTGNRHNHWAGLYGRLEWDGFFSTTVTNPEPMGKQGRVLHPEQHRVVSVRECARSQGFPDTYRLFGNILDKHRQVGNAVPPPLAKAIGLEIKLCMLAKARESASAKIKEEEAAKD
Method: ACHN Renal cell carcinoma cells were cultured at 37° C. in 5% CO2 using Minimum Essential Medium (GIBCO, Invitrogen, Carlsbad, Calif.) with 0.1 mM non-essential amino acids (GIBCO), 1.0 mM pyruvate (GIBCO), 10% fetal bovine serum, penicillin G (50 U/ml), and streptomycin (50 μg/ml). WM9 melanoma cells (13) were grown in RPMI medium (GIBCO) containing 10% fetal bovine serum, penicillin G (50 U/ml), and streptomycin (50 μg/ml) under the same incubator conditions.
To selectively downregulate DNMT1, cells were transfected with MG98 (MethylGene, Quebec, Canada), a second-generation 4×4 2′methyl phosphorothioate oligonucleotide antisense against the 3′ UTR of DNMT1 mRNA (5′-[…]-3) or mismatch (underlined) control oligonucleotide (5′-[…]-3′) (SEQ ID NO:40) at indicated concentrations starting one day after plating at 15000 cells/cm^2. Transfections were performed daily with 6.25 μg/ml Lipofectin (Invitrogen, Carlsbad, Calif.) in OptiMem (GIBCO, Invitrogen, Carlsbad, Calif.) over 4 hr. Before and after transfections cells were washed once with PBS. Every second day cells were replated at 15000 cells/cm^2 four hr after the preceding transfection. 5-AZA-dC (Sigma-Aldrich, St Louis, Mo.) stock solution (100 mM) in DMSO and working solutions for one time use in PBS (1 mM) were stored at −20° C. […]

ACHN cells [2] = assay: growth of ACHN cells (data not shown); type: cell-based, human
RASSF1A promoter region = assay: methylation specific PCR of RASSF1A; type: cell-based, human; conditions: ACHN cells
Method: One microgram of genomic DNA, harvested with a blood DNA mini kit (Quiagen, Valencia, Calif.), was used for bisulfite modification with the CpGenome kit (Chemicon International, Temecula, Calif.) according to the manufacturer's instructions with final resuspension in 20 μl of 10 mM Tris/Ci, pH 8.5. Four μl of bisulfite modified DNA was used per 25 μl MSP reaction. Primers for RASSF1A MSP as published (15) were (5′ to 3′): M forward: GGG TTT TGC GAG AGC GCG (SEQ ID NO:41), M reverse: GCC AAG CGC AAA CAA TCG (SEQ ID NO:42), U forward: GGT TIT GTG AGA GTG TGT TTA G (SEQ ID NO:43), U reverse: AAACCAAACACAAACAATCAC (SEQ ID NO:44). PCR settings for methylated (M) primer pair were denaturation at 95° C. for 5 min, followed by 35 cycles with a 1 min denaturation step, 30 sec annealing at 60° C., and extension at 72° C. for 30 sec. Final extension after 35 cycles was at 72° C. for 4 min. For sequences specific for unmethylated (U) DNA settings were the same except for annealing at 55° C.

tumour xenograft models = assay: tumour xenograft models; type: in vivo; conditions: daily dosing compared to intermittent administration
ACHN cells [3] = assay: cDNA array analysis (Affymetrix U133A); type: cell-based, human
Text: To identify additional genes reactivated through DNA demethylation and of potential importance for the sensitization to IFN-induced apoptosis we performed cDNA array analysis with RNA harvested from ACHN cells 24 hr after the 8th DNMT1 AS transfection and 16 hr after 50 U/ml IFN β 1a treatment. RNA was harvested as mentioned above using Trizol (Invitrogen, Carlsbad, Calif.) method followed by transcription into cRNA, according to Affymetrix (Santa Clara, Calif.) recommendations for U133A array hybridization. Expression was analyzed using Affymetrix software.

ACHN cells [4] = assay: real-time RT-PCR for stat1, stat2 genes; type: cell-based, human
caspase 3 = caspase 3 activity assay; type: cell-based, human; conditions: FIG. 3; pretreatment alone
[5] = Phase I studies of MG98, toxicity

5′-TTAATGTAACCTAAGGTCAA-3′ (listed as DNA, chemistry not given here) [MM, mismatch control oligonucleotide]
amplification of full length RASSF1A cDNA (RASSF1A): no band
cells apoptotic on TUNEL staining (up to) (ACHN cells [1]; 5-AZA-dC over 24 days or oligonucleotide transfection over 6 to 8 days, then 50 U/ml IFN α or IFN β, 4-5 days after IFN): not
resistance to IFN-induced apoptosis after pretreatment (ACHN cells [1]): did not
apoptosis, agent alone (ACHN cells [1]): did not result in significant apoptosis

5′-UUCATGTCAGCCAAGGCCAC-3 (all phosphorothioate, sugars by position and methylation of C not given here; 2'-O-methyl gapmer) [MG98]
DNMT1 protein (DNMT1 protein): suppressed up to 48 hrs
amplification of full length RASSF1A cDNA (RASSF1A): single band
growth (ACHN cells [2]): reduced
methylation of RASSF1A promoter region (RASSF1A promoter region): led to demethylation
anti-tumour activity (tumour xenograft models): greatest anti-tumour activity
number of genes increased at least two-fold compared to the mismatch oligonucleotide (ACHN cells [3]; DNMT1 AS alone, data not shown): One hundred and thirty-seven
expression of genes known to be involved in IFN-induced apoptosis (ACHN cells [3]; Table 2): not significantly altered
reduction in DNMT1 expression (ACHN cells [3]; compared to mismatch oligonucleotide): 94%
expression of other DNMTs (ACHN cells [3]; compared to mismatch oligonucleotide, data not shown): without affecting expression of other DNMTs
increase of IFN-stimulated gene IF127 over MM treated cells (ACHN cells [3]; p<0.045): at least two-fold
Fold change in expression, Caspase 4 (ACHN cells [3]; relative to MM): 1.41 (MI) fold
Fold change in expression, HSXIAPAF1 (XAF1) (ACHN cells [3]; relative to MM): 3.36 (NS) fold
Fold change in expression, IRF1 (ACHN cells [3]; relative to MM): 1.32 (NS) fold
Fold change in expression, OAS1 (ACHN cells [3]; relative to MM): 0.80 (NS) fold
Fold change in expression, PRKR (PKR) (ACHN cells [3]; relative to MM): 0.71 fold
Fold change in expression, Stat1 (ACHN cells [3]; relative to MM): 0.60 fold
Fold change in expression, Stat2 (ACHN cells [3]; relative to MM): 0.68 (NS) fold
Fold change in expression, TNFSF10 (TRAIL/Apo2L) (ACHN cells [3]; relative to MM): 0.93 (NS) fold
stat1 expression, fold change over untreated (ACHN cells [4]): 0.27 fold
stat2 expression, fold change over untreated (ACHN cells [4]): 1.05 fold
caspase 3 activity (caspase 3): increased caspase 3 activity
resistance to IFN-induced apoptosis after pretreatment (ACHN cells [1]): overcome
apoptosis, agent alone (ACHN cells [1]): did not result in significant apoptosis
dose levels resulting in frequent adverse events ([5]; Phase I, 21-day infusion): above 80 mg/m^2/day
toxicity seen in nephrectomized patients ([5]; intermittent schedule, 160 mg/m^2/day is 44% below the dose concerned): grade 3 transaminitis

Nc1ncn([C@H]2C[C@H](O)[C@@H](CO)O2)c(=O)n1 [5-AZA-dC, 5-aza-deoxycytidine, reference compound]
DNMT1 protein (DNMT1 protein): suppressed up to 48 hrs
stat1 expression, fold change over untreated (ACHN cells [4]): 0.57 fold
stat2 expression, fold change over untreated (ACHN cells [4]): 1.38 fold
caspase 3 activity (caspase 3): increased caspase 3 activity
resistance to IFN-induced apoptosis after pretreatment (ACHN cells [1]): overcome
TUNEL positive (ACHN cells [1]; agent alone, no IFN, 5-AZA-dC 4 days): 20%
